Measurements: US3931197A, “Substituted piperidine derivatives” (Richardson-Merrell Inc., priority 1974, dated 1976)

system: wheals induced by intradermal injections of 1γ of histamine; assay: reduction by 50% of wheals induced by intradermal injections of histamine in guinea pigs; assay type: in vivo; conditions: Cavia porcellus, po, 1 h, orally administered one hour prior to intradermal injection of 1γ histamine, read-out: ED50 (amount of compound required to reduce by 50% wheals induced by intradermal injections of histamine)
Description: To illustrate the utility of the compounds of this invention the following tabulation indicates the amount of certain representative compounds of this invention required to reduce by 50% wheals induced by intradermal injections of 1γ of histamine into guinea pigs. Each compound was orally administered one hour prior to the histamine injection.

| Compound | ED50 [mg/kg] |
| --- | --- |
| Cl.O=C(CCCN1CCC(C(O)(c2ccccc2)c2ccccc2)CC1)c1ccc(C2CCCC2)cc1 [4'-Cyclopentyl-4-[4-(α-hydroxy-α-phenylbenzyl)piperidino]-butyrophenone hydrochloride] | 2.5 |
| Cc1ccc(C(=C2CCN(CCCC(=O)c3ccc(C(C)(C)C)cc3)CC2)c2ccccc2)cc1.Cl [4'-tert-Butyl-4-[4-[α-(p-tolyl)benzylidene]piperidino]-butyrophenone hydrochloride] | ~10 |
| CC(C)(C)c1ccc(C(=O)CCCN2CCC(C(O)(c3ccccc3)c3ccc(Cl)cc3)CC2)cc1.Cl (stereo not drawn) [4'-tert-Butyl-4-[4-[α-hydroxy-α-(p-chlorophenyl)benzyl]-piperidino]butyrophenone hydrochloride] | 27 |
| Cc1ccc(C(O)(c2ccccc2)C2CCN(CCCC(=O)c3ccc(C(C)(C)C)cc3)CC2)cc1.Cl (stereo not drawn) [4'-tert-Butyl-4-[4-[α-hydroxy-α-(p-tolyl)benzyl]piperidino]-butyrophenone hydrochloride] | 6 |
| Cl.O=C(CCCN1CCC(C(O)(c2ccccc2)c2ccccc2)CC1)c1ccc2ccccc2c1 [4-[4-(α-Hydroxy-α-phenylbenzyl)piperidino]-1-(2-naphthyl)-butan-1-one hydrochloride] | 3.6 |
| CC(C)(C)Cc1ccc(C(=O)CCCN2CCC(C(O)(c3ccccc3)c3ccccc3)CC2)cc1.Cl [4-[4-(α-Hydroxy-α-phenylbenzyl)piperidino]-4'-neopentyl-butyrophenone hydrochloride] | 0.5 |
